Patent US20020081572A1, “Three dimensional structure of paramyxovirus hemagglutinin neuraminidases and use thereof” (priority 2000, published 2002)

Columns and labels:
[1] = target: Sendai Virus Hemagglutinin-Neuraminidase (Sendai virus, UniProt P03425); assay: Paramyxovirus hemagglutinin-neuraminidase fluorimetric assay; format: biochemical
Influenza Neuraminidase = assay: Influenza neuraminidase fluorimetric assay; format: biochemical, influenza virus; settings: 4-methylumbelliferyl-alpha-D-acetylneuraminic acid substrate 75 uM, pH 6.5, 37 C

Chain of Sendai Virus Hemagglutinin-Neuraminidase (P03425 whole entry): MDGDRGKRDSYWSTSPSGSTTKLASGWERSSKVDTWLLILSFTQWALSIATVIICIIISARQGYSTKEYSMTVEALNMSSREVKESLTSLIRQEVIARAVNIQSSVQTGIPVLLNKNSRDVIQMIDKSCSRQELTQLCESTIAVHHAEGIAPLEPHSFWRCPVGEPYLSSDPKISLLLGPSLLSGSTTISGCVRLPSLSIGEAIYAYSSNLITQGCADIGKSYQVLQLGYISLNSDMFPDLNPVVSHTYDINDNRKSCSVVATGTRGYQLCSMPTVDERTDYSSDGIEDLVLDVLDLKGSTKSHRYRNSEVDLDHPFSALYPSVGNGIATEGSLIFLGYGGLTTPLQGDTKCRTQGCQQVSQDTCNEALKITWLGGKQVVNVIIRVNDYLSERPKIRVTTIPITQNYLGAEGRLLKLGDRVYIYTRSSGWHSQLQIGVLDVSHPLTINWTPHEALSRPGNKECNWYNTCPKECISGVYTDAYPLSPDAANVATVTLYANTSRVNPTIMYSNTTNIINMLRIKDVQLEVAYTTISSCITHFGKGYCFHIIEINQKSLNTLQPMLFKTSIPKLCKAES

Structure (SMILES) | IC50 [1] [µM] | IC50 (Influenza Neuraminidase) [µM]
CCC(CC)C(NC(C)=O)C1C(NC(=N)N)CC(C(=O)O)C1O (single isomer, unassigned; (-)) [Compound 2, (-)-t-e-[(1-Acetylamino)(2-ethyl)butyl]-c-4-(aminoiminomethyl)amino-t-2-hydroxycyclopentan-r-1-carboxylic acid] | > 300 | < 0.05
CCC(CC)C(NC(C)=O)C1CC(C(=O)O)CC1NC(=N)N (single isomer, unassigned; (-)) [Compound 3, (-)t-3-[(1-Acetylamino-2-ethyl)butyl]-c-4-(aminoiminomethyl)aminocyclopentan-r-1-carboxylic acid] | > 300 | < 0.05
CCN(CC)C(=O)C(NC(C)=O)C1CC(C(=O)O)CC1NC(=N)N (stereo not drawn) [Compound 1, alpha-3-[(Acetylamino)(diethylaminocarbonyl)methyl]-beta-4-[(aminoiminomethyl)amino]cyclopentane-1-carboxylic acid] | > 300 | < 0.05
